Results on 16 compounds are retold here after article PMC5344255, “Design, Synthesis and Biochemical Evaluation of Novel Selective Estrogen Receptor Ligand Conjugates Incorporating an Endoxifen-Combretastatin Hybrid Scaffold” (Biomedicines, 2016).

The subject of series [1] is MCF-7 human breast cancer cells. The series is described as follows: MTT assay for antiproliferative effects in MCF-7. The format is cell-based. The method, then:
(§1) The human breast carcinoma cell line, MCF-7, was purchased from the European Collection of Animal Cell Cultures (ECACC). The cells were maintained in MCF-7 complete medium; consisting of Eagle’s Minimum Essential Medium (MEM) supplemented with 10% (v/v) Foetal Bovine Serum (FBS), 2 mM L-glutamine, 100 μg/mL penicillin/streptomycin and 1% (v/v) non-essential amino acids. Cell cultures were maintained at 37 °C under a humidified atmosphere of 5% CO2/95% O2. The human breast carcinoma cell line, MDA, was purchased from the European Collection of Animal Cell Cultures (ECACC). The cells were maintained in MDA complete medium; consisting of Dulbecco’s Modified Eagle’s Medium (D-MEM) supplemented with 10% (v/v) Foetal Bovine Serum (FBS), 2 mM L-glutamine, 100 μg/mL penicillin/streptomycin. Cell cultures were maintained at 37 °C under a humidified atmosphere of 5% CO2/95% O2. The MTT assay was performed according to the reported protocol. The tetrazolium salt, 3-(4,5-dimethylthiazol-2-yl)-2,5-diphenyltetrazolium bromide (MTT) is taken up only by metabolically active cells and cleaved to form a formazan dye by mitochondrial dehydrogenases. Assays where repeated in three experiments performed in triplicate (unless otherwise stated) and reported results represent the mean value ± standard error mean. Graphs of percentage cell viability versus concentration of the subject compound were processed using PRISM [31].
In general terms: Tetrazolium dyes change colour on reduction, which living cells bring about.

For series [2] the test system is unchanged. The series is described as follows: Lactate dehydrogenase (LDH) cytotoxicity assay in MCF-7. To be noted: % cell lysis at 10 µM. Format: cell-based. The protocol:
(§2) In this assay, the release of cytoplasmic lactate dehydrogenase (LDH) is used as a measure of cell lysis. MCF-7 and MDA-MB-231 cells were seeded at a density of 1 × 10^4 cells/well in a 96-well plate and incubated for 24 h. The cells were then dosed with 2 μL volumes of the test compounds, over the concentration range 1 nM–50 μM. Cytotoxicity was determined using the CytoTox 96 nonradioactive cytotoxicity assay (Promega, Madison, WI, USA) following the manufacturer’s protocol.

In series [3] the test system is MDA-MB-231 human breast cancer cells. The series is described as follows: MTT assay for antiproliferative effects in MDA-MB-231. Format: cell-based. The settings on record: MDA-MB-231, MTT assay. The protocol: as §1, with “Cell cultures were maintained at 37 °C under a humidified atmosphere of 5% CO2/95% O2.” left out, “Assays where repeated in three experiments performed in triplicate (unless otherwise stated) and reported results represent the mean value ± standard error mean.” left out

Series [4] has the same test system. The series is described as follows: Lactate dehydrogenase (LDH) cytotoxicity assay in MDA-MB-231. The format is cell-based. The settings on record: % cell lysis at 10 μM. The method, then:
as §2

The subject of series [5] is Ishikawa cell line of human endometrial adenocarcinoma cells. The series is described as follows: Ishikawa assay, estrogen stimulation of alkaline phosphatase activity. The format is cell-based. The protocol:
The Ishikawa assay is used to measure estrogen stimulation of alkaline phosphatase enzyme activity (AlkP) by the Ishikawa cell line of human endometrial adenocarcinoma cells. The Ishikawa assay provides a measure of the agonist activity of a compound. […] The assay was carried out following the method of Littlefield et al.. The batch of Ishikawa cells were obtained as a gift from Professor R. Hochberg—who developed the alkaline phosphatase assay in Yale University, CT, USA.
The Ishikawa assay is used to measure estrogen stimulation of alkaline phosphatase enzyme activity (AlkP) by the Ishikawa cell line of human endometrial adenocarcinoma cells. […] The conjugate was dosed in duplicate.

Setting [6] is: Homo sapiens, MCF7, MCF-7, MTT assay, mean of at least three experiments in triplicate.
Setting [7] is: Homo sapiens, MCF7, MCF-7, MTT assay, values in nM.

Turning to `CCC(=C(c1ccc(O)cc1)c1ccc(OCCN(C)C(=O)/C(=C/c2ccc3ccccc3c2)c2cc(OC)c(OC)c(OC)c2)cc1)c1ccc(O)cc1` (mixture of isomers) [Compound 36, (E)-N-(2-{4-[(E/Z)-1,2-Bis-(4-hydroxyphenyl)but-1-enyl]phenoxy}ethyl)-N-methyl-3-naphthalen-2-yl-2-(3,4,5-trimethoxyphenyl)acrylamide], the concentration for half-maximal inhibition (IC50) – broadly, the concentration at which inhibition is half-maximal – was 3620 nM in series [1] (setting [6]), 1.51 nM in series [1] (setting [7]) and 4.32 µM in series [3]. The figures for the “% Cell Death at 10 μM” value in series [2] and in series [4] were 3% and 0%, respectively.
For `CCC(=C(c1ccc(O)cc1)c1ccc(OCCN(C)C(=O)/C(=C/c2ccc(Br)cc2)c2cc(OC)c(OC)c(OC)c2)cc1)c1ccccc1` (mixture of isomers) [Compound 41, (E)-3-(4-Bromophenyl)-N-(2-{4-[(E/Z)-1-(4-hydroxyphenyl)-2-phenylbut-1-enyl]phenoxy}ethyl)-N-methyl-2-(3,4,5-trimethoxyphenyl)acrylamide], the IC50 in series [1] (setting [6]) is 1030 nM; in series [3] it was more than 50 µM. Also, the “% Cell Death at 10 μM” value is reported as 5% in series [2] and 0% in series [4].
Consider `CCC(=C(c1ccc(O)cc1)c1ccc(OCCN(C)C(=O)/C(=C/c2ccc(Br)cc2)c2cc(OC)c(OC)c(OC)c2)cc1)c1ccc(O)cc1` (mixture of isomers) [Compound 42, (E)-N-(2-{4-[(E/Z)-1,2-Bis-(4-hydroxyphenyl)but-1-enyl]phenoxy}ethyl)-3-(4-bromophenyl)-N-methyl-2-(3,4,5-trimethoxyphenyl)acrylamide], for which the 50% inhibitory concentration (IC50) in series [1] (setting [6]) was 2350 nM; in series [3] it was more than 50 µM. The “% Cell Death at 10 μM” value in series [2] was found to be 7%; in series [4] it was 9%.
In the case of `CCC(=C(c1ccc(O)cc1)c1ccc(OCCN(C)C(=O)/C(=C/c2ccc(OC)c(F)c2)c2cc(OC)c(OC)c(OC)c2)cc1)c1ccccc1` (mixture of isomers) [Compound 43, (E)-3-(3-Fluoro-4-methoxyphenyl)-N-(2-{4-[(E/Z)-1-(4-hydroxyphenyl)-2-phenylbut-1-enyl]phenoxy}ethyl)-N-methyl-2-(3,4,5-trimethoxyphenyl) acrylamide], the 50% inhibitory concentration (IC50) was found to be 180 nM in series [1] (setting [6]) and 30.3 µM in series [3]. The results for the “% Cell Death at 10 μM” value in series [2] and in series [4] were 2% and 0%, respectively.
In the case of `CCC(=C(c1ccc(O)cc1)c1ccc(OCCN(C)C(=O)/C(=C/c2ccc(OC)c(F)c2)c2cc(OC)c(OC)c(OC)c2)cc1)c1ccc(O)cc1` (mixture of isomers) [Compound 44, (E)-N-(2-{4-[(E/Z)-1,2-Bis-(4-hydroxyphenyl)but-1-enyl]phenoxy}ethyl)-3-(3-fluoro-4-methoxyphenyl)-N-methyl-2-(3,4,5-trimethoxyphenyl)acrylamide], the IC50 in series [1] (setting [6]) was 194 nM; in series [3], 1.85 µM. For the same compound, the “% Cell Death at 10 μM” value in series [2] is on record as 10%; in series [4] it was 14%.
For `CCC(=C(c1ccc(O)cc1)c1ccc(OCCN(C)C(=O)/C(=C/c2ccc(OC)c(N)c2)c2cc(OC)c(OC)c(OC)c2)cc1)c1ccccc1` (mixture of isomers) [Compound 45, (E)-3-(3-Amino-4-methoxyphenyl)-N-(2-{4-[(E/Z)-1-(4-hydroxyphenyl)-2-phenylbut-1-enyl]phenoxy}ethyl)-N-methyl-2-(3,4,5-trimethoxyphenyl) acrylamide] the same measures were 959 nM, 7.11 µM, 8% and 0%.
The corresponding values for `CCC(=C(c1ccc(O)cc1)c1ccc(OCCN(C)C(=O)/C(=C/c2ccc(OC)c(N)c2)c2cc(OC)c(OC)c(OC)c2)cc1)c1ccc(O)cc1` (mixture of isomers) [Compound 46, (E)-3-(3-Amino-4-methoxyphenyl)-N-(2-{4-[(E/Z)-1,2-bis-(4-hydroxyphenyl)but-1-enyl]phenoxy}ethyl)-N-methyl-2-(3,4,5-trimethoxyphenyl) acrylamide] are 6150 nM, 49.7 µM, 6% and 0%.
Regarding `COc1ccc(/C=C(/C(=O)O)c2cc(OC)c(OC)c(OC)c2)cc1N` [Compound 16, (E)-3-(3-Amino-4-methoxyphenyl)-2-(3,4,5-trimethoxyphenyl)acrylic acid], the melting point (in general, the temperature, or range, at which the solid turns liquid) lay within 199 to 202 °C. Also, in series [1] (setting [6]), the IC50 was less than 10000 nM. In series [1] (MCF-7, MTT assay, mean of at least three experiments in triplicate), this compound returned a concentration for half-maximal inhibition (IC50) of 6700 nM.
`COc1cc(/C(=C\c2ccc(Br)cc2)C(=O)O)cc(OC)c1OC` [Compound 17, (E)-3-(4-Bromophenyl)-2-(3,4,5-trimethoxyphenyl)acrylic Acid] returned a melting point of 227 to 230 °C. The compound further yielded an IC50 in series [1] (setting [6]) of more than 50000 nM.
The compound `COc1cc(/C(=C\c2ccc(F)cc2)C(=O)O)cc(OC)c1OC` [Compound 18, (E)-3-(4-Fluorophenyl)-2-(3,4,5-trimethoxyphenyl)acrylic acid] showed a melting point of 211 to 213 °C. The compound further had a 50% inhibitory concentration (IC50) in series [1] (setting [6]) of more than 50000 nM.
For `COc1cc(/C(=C\c2ccc(C)cc2)C(=O)O)cc(OC)c1OC` [Compound 19, (E)-3-p-Tolyl-2-(3,4,5-trimethoxyphenyl)acrylic acid] the same measures were 190 to 193 °C and 26100 nM.
For the compound `COc1cc(/C(=C\c2ccc(SC)cc2)C(=O)O)cc(OC)c1OC` [Compound 20, (E)-3-(4-Methylsulfanylphenyl)-2-(3,4,5-trimethoxyphenyl)acrylic acid], the melting point was 194 to 196 °C. In addition, the half-inhibitory concentration (IC50) in series [1] (setting [6]) was 10600 nM.
The compound `COc1cc(/C(=C\c2ccc3ccccc3c2)C(=O)O)cc(OC)c1OC` [Compound 22, (E)-3-Naphthalen-2-yl-2-(3,4,5-trimethoxyphenyl)acrylic acid] gave a melting point of 238 to 240 °C. The compound also returned an IC50 in series [1] (setting [6]) of 15300 nM.
Take `COc1ccc(/C=C\c2cc(OC)c(OC)c(OC)c2)cc1O` [Compound 26, Combretastatin A-4, reference compound]: the IC50 in series [1] (setting [6]) was 8 nM; in series [1] (setting [7]), 8 nM; in series [3], 0.043 µM. The “% Cell Death at 10 μM” value stood at 13% in series [2] and 4% in series [4].
For the compound `COc1ccc(/C(=C\c2cc(OC)c(OC)c(OC)c2)C(=O)N2CCCCC2)cc1` [Compound 47, (E)-2-(4-Methoxyphenyl)-1-(piperidin-1-yl)-3-(3,4,5-trimethoxyphenyl)prop-2-en-1-one], the melting point was 106 to 108 °C. In series [1] (setting [6]), this compound came in with an IC50 of more than 50000 nM.
For the compound `CC/C(=C(\c1ccccc1)c1ccc(OCCN(C)C)cc1)c1ccccc1` [Tamoxifen, reference compound], the “% Cell Death at 10 μM” value in series [4] is listed as 0%. The “estrogenic activity (alkaline phosphatase stimulation)” value in series [5] (compound dosed individually) is recorded as “displays some estrogenic activity at higher concentrations”. Moreover, the “estrogen stimulation (alkaline phosphatase) in mixture with estradiol” value in series [5] (dosed with 1 nM estradiol spike) is recorded as “estrogen stimulation at low concentration while a reduction occurs as the concentration of Tamoxifen is increased”.
